Our source for the Kd and IC50 values is patent US20250115598A1 (Anaxis Pharma Pty Ltd, priority 2021, published 2025).

Assay [1] addresses mouse MLKL (full length) (Mus musculus (Mouse), UniProt Q9D2Y4). The assay is described as follows: KINOMEscan binding assay, mouse MLKL (full length). The following applies: Table 22. How it is done:
Binding affinity of the test compounds for human MLKL (full length), mouse MLKL (full length), human RIPK1 and human RIPK3 was determined using the KINOMEscan™ technology developed by DiscoverX (USA; http://www.discoverx.com). The assay was conducted according to manufacturer instructions.
Kinase assays. For most assays, kinase-tagged T7 phage strains were grown in parallel in 24-well blocks in an E. coli host derived from the BL21 strain. E. coli were grown to log-phase and infected with T7 phage from a frozen stock (multiplicity of infection=0.4) and incubated with shaking at 32° C. until lysis (90-150 minutes). The lysates were centrifuged (6,000×g) and filtered (0.2 μm) to remove cell debris. The remaining kinases were produced in HEK-293 cells and subsequently tagged with DNA for qPCR detection. […] The liganded beads were blocked with excess biotin and washed with blocking buffer (SeaBlock (Pierce), 1% BSA, 0.05% Tween 20, 1 mM DTT) to remove unbound ligand and to reduce non-specific phage binding. […] All reactions were performed in polypropylene 384-well plates in a final volume of 20 μL. […] The kinase concentration in the eluates was measured by qPCR.
An 11-point 3-fold serial dilution of each test compound was prepared in 100% DMSO at 100× final test concentration and subsequently diluted to 1× in the assay (final DMSO concentration=1%). Most Kos were determined using a compound top concentration=30,000 nM.
KD for each test compound was calculated with a standard dose-response curve using the Hill equation (equation (1)): […]
The Hill Slope was set to −1.
Curves were fitted using a non-linear least square fit with the Levenberg-Marquardt algorithm.

In assay [2] the target is human MLKL (full length) (Homo sapiens (Human), UniProt Q8NB16). The assay is described as follows: KINOMEscan binding assay, human MLKL (full length). The following applies: KINOMEscan, Table 21; read-out: Human MLKL (full-length) (KD). In outline:
(§1)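 Assay principle: test compound competes with immobilized bead ligand for kinase; kinase retained, then eluted, is counted by qPCR. Conditions were 1% DMSO final with 11 compound concentrations in 3-fold steps, 30,000 nM top for most. The Hill equation with slope −1 gave Kd.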

Assay [3] concerns the target human RIPK1 (Homo sapiens (Human), UniProt Q13546). The assay is described as follows: KINOMEscan binding assay, human RIPK1. The following applies: Table 21. In outline:
as §1

The target of assay [4] is human RIPK3 (Homo sapiens (Human), UniProt Q9Y572). The assay can be described thus: KINOMEscan binding assay, human RIPK3. The following applies: Table 21. In outline: as §1
In assay [5] the test system is Immortalised Mouse Dermal Fibroblasts (MDFs). The assay can be described thus: Cellular assay: inhibition of TSI induced necroptosis, CellTitre-Glo viability. The following applies: Mus musculus, Fibroblast; MDF, 3 hours TSI cocktail, Table 24; read-out: Inhibition of TSI-induced necroptosis (IC50 cell-based assay) in MDF. In outline: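 Immortalised mouse dermal fibroblasts (2200 cells/well) pretreated 30 min with compound, 10-point 1:3 series from 36 μM, 0.3% DMSO. Then 3 h at 37° C. with TNF (100 ng/ml), Smac mimetic (500 nM) and IDN-6556 (10 μM). CellTiter-Glo luminescence normalised to DMSO (100%) and DMSO+TSI (0%); IC50 from 4-parameter logistic fit.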

Some results are limits rather than exact numbers.

As a reminder, the Kd is the free concentration of one partner at which half of the binding sites on the other are occupied at equilibrium, for simple one-to-one binding. What is called IC50 is the midpoint of a concentration-inhibition curve.

Sequence of human MLKL (full length) (Q8NB16 whole entry): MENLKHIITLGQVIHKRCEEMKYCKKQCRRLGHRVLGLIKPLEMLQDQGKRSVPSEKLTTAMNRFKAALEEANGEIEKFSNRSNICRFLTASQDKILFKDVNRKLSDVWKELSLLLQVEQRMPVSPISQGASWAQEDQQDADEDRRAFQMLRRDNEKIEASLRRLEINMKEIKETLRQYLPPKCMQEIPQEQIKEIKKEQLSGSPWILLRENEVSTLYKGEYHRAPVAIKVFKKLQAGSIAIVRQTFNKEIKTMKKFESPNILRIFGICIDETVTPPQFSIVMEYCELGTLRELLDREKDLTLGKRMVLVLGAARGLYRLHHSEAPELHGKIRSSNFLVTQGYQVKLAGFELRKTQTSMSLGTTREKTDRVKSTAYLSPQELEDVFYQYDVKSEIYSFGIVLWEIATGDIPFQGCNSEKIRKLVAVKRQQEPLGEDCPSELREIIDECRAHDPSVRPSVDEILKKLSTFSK
Sequence of human RIPK1 (Q13546 whole entry): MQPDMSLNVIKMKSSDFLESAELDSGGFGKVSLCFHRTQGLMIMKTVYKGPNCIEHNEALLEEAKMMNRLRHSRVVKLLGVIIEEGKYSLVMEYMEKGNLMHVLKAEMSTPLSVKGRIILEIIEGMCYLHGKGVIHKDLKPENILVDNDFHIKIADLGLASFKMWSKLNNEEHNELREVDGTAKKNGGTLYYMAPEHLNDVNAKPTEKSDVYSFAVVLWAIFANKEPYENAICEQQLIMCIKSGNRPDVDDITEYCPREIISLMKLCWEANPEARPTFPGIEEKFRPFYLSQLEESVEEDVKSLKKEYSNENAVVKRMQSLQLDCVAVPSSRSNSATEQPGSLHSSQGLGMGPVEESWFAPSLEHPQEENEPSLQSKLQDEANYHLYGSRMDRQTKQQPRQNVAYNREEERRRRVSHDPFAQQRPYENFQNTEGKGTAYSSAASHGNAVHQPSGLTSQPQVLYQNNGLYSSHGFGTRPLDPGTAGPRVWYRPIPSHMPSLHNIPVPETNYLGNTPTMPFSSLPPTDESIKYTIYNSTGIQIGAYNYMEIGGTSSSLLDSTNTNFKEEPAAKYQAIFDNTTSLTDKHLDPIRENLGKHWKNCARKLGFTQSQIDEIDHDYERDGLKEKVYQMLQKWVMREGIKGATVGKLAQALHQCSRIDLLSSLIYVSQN
Sequence of mouse MLKL (full length) (Q9D2Y4 whole entry): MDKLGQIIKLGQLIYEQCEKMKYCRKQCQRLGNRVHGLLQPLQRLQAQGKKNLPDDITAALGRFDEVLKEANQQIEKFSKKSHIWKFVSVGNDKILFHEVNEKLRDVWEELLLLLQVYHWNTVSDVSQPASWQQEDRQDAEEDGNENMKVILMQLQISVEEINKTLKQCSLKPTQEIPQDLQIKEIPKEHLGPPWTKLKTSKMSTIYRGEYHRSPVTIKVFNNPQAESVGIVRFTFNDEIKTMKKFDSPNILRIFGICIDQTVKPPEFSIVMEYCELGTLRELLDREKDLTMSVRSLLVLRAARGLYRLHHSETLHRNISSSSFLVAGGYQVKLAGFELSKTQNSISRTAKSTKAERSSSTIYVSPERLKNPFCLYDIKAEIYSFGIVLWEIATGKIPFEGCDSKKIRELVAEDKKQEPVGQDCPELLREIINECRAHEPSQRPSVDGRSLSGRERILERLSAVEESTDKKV
Sequence of human RIPK3 (Q9Y572 whole entry): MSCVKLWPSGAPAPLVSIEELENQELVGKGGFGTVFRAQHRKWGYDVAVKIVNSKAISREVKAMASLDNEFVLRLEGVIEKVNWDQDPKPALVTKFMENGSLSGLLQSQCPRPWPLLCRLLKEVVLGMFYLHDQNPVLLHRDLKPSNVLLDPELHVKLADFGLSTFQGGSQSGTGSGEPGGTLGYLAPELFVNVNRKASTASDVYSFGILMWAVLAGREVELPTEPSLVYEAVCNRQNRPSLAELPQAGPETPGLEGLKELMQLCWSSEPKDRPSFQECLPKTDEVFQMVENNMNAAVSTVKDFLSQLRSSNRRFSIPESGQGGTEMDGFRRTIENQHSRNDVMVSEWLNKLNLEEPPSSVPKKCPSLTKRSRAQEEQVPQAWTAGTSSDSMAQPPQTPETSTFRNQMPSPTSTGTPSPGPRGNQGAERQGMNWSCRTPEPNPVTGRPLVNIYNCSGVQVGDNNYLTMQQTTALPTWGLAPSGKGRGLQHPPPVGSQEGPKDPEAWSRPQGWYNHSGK

Consider `Nc1ncc(-c2cnn(C3CCOCC3)c2)c2occ(-c3ccc(NS(=O)(=O)C(F)F)c(OCc4ccc(F)cc4)c3)c12` [Compound 5, N-(4-(4-amino-7-(1-(tetrahydro-2H-pyran-4-yl)-1H-pyrazol-4-yl)furo[3,2-c]pyridin-3-yl)-2-((4-fluorobenzyl)oxy)phenyl)-1,1-difluoro-methanesulfonamide], for which the dissociation constant (Kd) in assay [1] and in assay [2] was less than 1 nM throughout.
`C[C@H](Oc1cc(-c2coc3c(-c4cnn(C5CCOCC5)c4)cnc(N)c23)ccc1NS(=O)(=O)C(F)F)c1ccc(F)cc1` [Compound 7, (S)-N-(4-(4-amino-7-(1-(tetrahydro-2H-pyran-4-yl)-1H-pyrazol-4-yl)furo[3,2-c]pyridin-3-yl)-2-(1-(4-fluoro-phenyl)eth-oxy)phenyl)-1,1-difluoro-methanesulfonamide]: the Kd was greater than 10000 nM in assay [3], less than 1 nM in assay [1] and greater than 10000 nM in assay [4].
Turning to `C[C@H](Oc1cc(-c2coc3c(-c4cnn(C)c4)cnc(N)c23)ccc1NS(=O)(=O)C(F)F)c1ccc(F)cc1` [Compound 8, (S)-N-(4-(4-amino-7-(1-methyl-1H-pyrazol-4-yl)furo[3,2-c]pyridin-3-yl)-2-(1-(4-fluorophenyl)eth-oxy)phenyl)-1,1-difluoromethane-sulfonamide], the Kd in assay [3] is greater than 10000 nM; in assay [1] it was less than 1 nM; in assay [2] it was less than 1 nM; in assay [4], greater than 10000 nM.
With `Cn1nc(-c2ccc(NS(=O)(=O)C(F)F)c(OCc3ccc(F)cc3)c2)c2c(N)ncc(-c3cnn(C4CCOCC4)c3)c21` [Compound 13, N-(4-(4-amino-1-methyl-7-(1-(tetrahydro-2H-pyran-4-yl)-1H-pyrazol-4-yl)-1H-pyrazolo[4,3-c]pyridin-3-yl)-2-((4-fluoro-benzyl)oxy)phenyl)-1,1-difluoromethane-sulfonamide], the Kd in assay [3] is greater than 10000 nM; in assay [1], less than 1 nM; in assay [2], less than 1 nM; in assay [4], greater than 10000 nM.
As for `C[C@H](Oc1cc(-c2nn(C)c3c(-c4cnn(CCO)c4)cnc(N)c23)ccc1NS(=O)(=O)C(F)F)c1ccc(F)cc1` [Compound 15, (S)-N-(4-(4-amino-7-(1-(2-hydroxyethyl)-1H-pyrazol-4-yl)-1-methyl-1H-pyrazolo[4,3-c]pyridin-3-yl)-2-(1-(4-fluorophenyl)ethoxy)phenyl)-1,1-difluoromethanesulfonamide], the Kd in assay [3] was greater than 10000 nM; in assay [1] it was less than 1 nM; in assay [2], less than 1 nM; in assay [4] it was greater than 10000 nM.
With `C[C@H](Oc1cc(-c2nn(C)c3c(-c4cnn(C5CCOCC5)c4)cnc(N)c23)ccc1NS(=O)(=O)C(F)F)c1ccc(F)cc1` [Compound 19], the dissociation constant (Kd) in assay [1] and in assay [2] was less than 1 nM in each case. Moreover, the half-maximal inhibitory concentration (IC50) in assay [5] is less than 1000 nM.
Turning to `C[C@H](Oc1cc(-c2nn(C)c3c(-c4cnn(C)c4)cnc(N)c23)ccc1NS(=O)(=O)C(F)F)c1ccc(F)cc1` [Compound 20, (S)-N-(4-(4-amino-1-methyl-7-(1-methyl-1H-pyrazol-4-yl)-1H-pyrazolo[4,3-c]pyridin-3-yl)-2-(1-(4-fluorophenyl)ethoxy)phenyl)-1,1-difluoromethanesulfonamide], the dissociation constant (Kd) in assay [3] is greater than 10000 nM; in assay [1], less than 1 nM; in assay [2] it was less than 1 nM; in assay [4] it was greater than 10000 nM.
For the compound `C[C@H](Oc1cc(-c2nn(C)c3c(-c4cnn(CCN5CCN(C)CC5)c4)cnc(N)c23)ccc1NS(=O)(=O)C(F)F)c1ccc(F)cc1` [Compound 60, (S)-N-(4-(4-amino-1-methyl-7-(1-(2-(4-metyhlpiperazin-1-yl)ethyl)-1H-pyrazol-4-yl)-1H-pyrazolo[4,3-c]pyridin-3-yl)-2-(1-(4-fluorophenyl)ethoxy)phenyl)-1,1-difluoromethanesulfonamide], the results for the Kd in assay [3], in assay [1] and in assay [4] were greater than 10000 nM, less than 1 nM and greater than 10000 nM, respectively.
